From ChEMBL document CHEMBL5360563, “Discovery of a potent and selective allosteric inhibitor targeting the SHP2 tunnel site for RTK-driven cancer treatment” (Eur J Med Chem, 2023) come the findings set out here.

Structures are written as SMILES. Where only a bound is given, the exact number is not on record here.

The target of series [1] is T1, Tyrosine-protein phosphatase non-receptor type 11 (Homo sapiens, UniProt Q06124).
T1 sequence (Q06124 whole entry): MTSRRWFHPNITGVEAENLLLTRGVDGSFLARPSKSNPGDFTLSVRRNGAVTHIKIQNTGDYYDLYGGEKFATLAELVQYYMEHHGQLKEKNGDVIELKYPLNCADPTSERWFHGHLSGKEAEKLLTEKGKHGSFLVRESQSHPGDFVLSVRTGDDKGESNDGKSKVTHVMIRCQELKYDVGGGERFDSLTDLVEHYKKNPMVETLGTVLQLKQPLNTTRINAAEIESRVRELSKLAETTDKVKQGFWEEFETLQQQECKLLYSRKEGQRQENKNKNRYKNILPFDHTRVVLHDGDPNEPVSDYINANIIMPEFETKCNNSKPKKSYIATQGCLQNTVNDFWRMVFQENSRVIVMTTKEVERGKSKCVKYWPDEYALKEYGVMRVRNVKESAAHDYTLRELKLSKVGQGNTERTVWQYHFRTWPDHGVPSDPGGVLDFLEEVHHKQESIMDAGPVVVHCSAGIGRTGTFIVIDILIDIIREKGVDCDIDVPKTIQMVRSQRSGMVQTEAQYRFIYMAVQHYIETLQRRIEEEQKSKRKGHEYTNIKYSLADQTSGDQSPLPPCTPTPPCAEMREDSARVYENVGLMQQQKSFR
The series can be described thus: Inhibition of pIRS-1 peptide activated human wild type SHP2 FL (Met1 to Leu525 residues) using DiFMUP as substrate preincubated for 30 mins followed by substrate addition and measured after 30 mins by microplate reader method.

A short description of series [2]: Tmax in Sprague-Dawley rat at 5 mg/kg, iv and measured upto 24 hrs by LC-MS/MS analysis. In kind it is ADME, organism-based. Conditions: in vivo.
The target in series [3] is T1, Tyrosine-protein phosphatase non-receptor type 11. The series can be described thus: Inhibition of human SHP2 in human NCI-H1975 cells assessed as reduction in ERK phosphorylation by Western blot analysis. Type of series: cell-based. (In general: Immunoblotting shows a protein as a band on a membrane.)
In series [4] the target is Insulin receptor (Homo sapiens) (UniProt P06213). As to conditions: dose 1000.0 nM.
Description: Inhibition of INSR (unknown origin) at 1000 nM by KINOMEscan assay relative to control
Series [5] can be described thus: AUC (0 to infinity) in Sprague-Dawley rat at 5 mg/kg, iv and measured upto 24 hrs by LC-MS/MS analysis. Type of series: ADME, organism-based. On the set-up: dose 5 mg/kg, time < 24 hrs, route iv. As to conditions: in vivo.
In series [6] the target is Dual specificity tyrosine-phosphorylation-regulated kinase 1B (Homo sapiens) (UniProt Q9Y463). As to conditions: dose 1000.0 nM.
Description: Inhibition of DYRK1B (unknown origin) at 1000 nM by KINOMEscan assay relative to control
Series [7] can be described thus: Volume of distribution at steady state in Sprague-Dawley rat at 5 mg/kg, iv and measured upto 24 hrs by LC-MS/MS analysis. Type of series: ADME, organism-based. Conditions: in vivo, read-out: Vdss.
For series [8], the target named is Phosphatidylinositol 4-phosphate 3-kinase C2 domain-containing subunit beta (Homo sapiens) (UniProt O00750). As to conditions: dose 1000.0 nM.
Description: Inhibition of PIK3C2B (unknown origin) at 1000 nM by KINOMEscan assay relative to control
Series [9] is described as follows: Cmax in Sprague-Dawley rat at 5 mg/kg, iv and measured upto 24 hrs by LC-MS/MS analysis. Type of series: ADME, organism-based. Conditions: in vivo. On the set-up: dose 5 mg/kg, time < 24 hrs, route iv.
Series [10] can be described thus: Oral bioavailability in Sprague-Dawley rat at 5 mg/kg and measured upto 24 hrs by LC-MS/MS analysis. Type of series: ADME, organism-based. Conditions: in vivo.
Series [11] addresses T2, TGF-beta receptor type-1 (Homo sapiens) (UniProt P36897).
T2 sequence (whole entry): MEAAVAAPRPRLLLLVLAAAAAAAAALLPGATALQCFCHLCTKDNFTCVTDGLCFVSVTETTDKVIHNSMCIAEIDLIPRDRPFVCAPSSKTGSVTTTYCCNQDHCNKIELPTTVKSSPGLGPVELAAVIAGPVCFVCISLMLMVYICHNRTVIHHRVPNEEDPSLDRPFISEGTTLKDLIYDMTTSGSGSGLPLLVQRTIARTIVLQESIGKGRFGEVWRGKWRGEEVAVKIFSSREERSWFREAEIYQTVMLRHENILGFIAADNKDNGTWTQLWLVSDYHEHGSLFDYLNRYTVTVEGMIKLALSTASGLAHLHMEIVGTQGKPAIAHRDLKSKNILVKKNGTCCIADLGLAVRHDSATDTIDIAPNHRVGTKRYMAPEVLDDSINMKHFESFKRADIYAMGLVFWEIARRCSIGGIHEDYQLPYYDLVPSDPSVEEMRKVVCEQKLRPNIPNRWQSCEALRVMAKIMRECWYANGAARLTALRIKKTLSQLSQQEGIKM
Conditions: dose 1000.0 nM.
Description: Inhibition of TGFBR1 (unknown origin) at 1000 nM by KINOMEscan assay relative to control

The target in series [12] is T3, Serine/threonine-protein kinase STK11 (Homo sapiens) (UniProt Q15831).
T3 sequence (whole entry): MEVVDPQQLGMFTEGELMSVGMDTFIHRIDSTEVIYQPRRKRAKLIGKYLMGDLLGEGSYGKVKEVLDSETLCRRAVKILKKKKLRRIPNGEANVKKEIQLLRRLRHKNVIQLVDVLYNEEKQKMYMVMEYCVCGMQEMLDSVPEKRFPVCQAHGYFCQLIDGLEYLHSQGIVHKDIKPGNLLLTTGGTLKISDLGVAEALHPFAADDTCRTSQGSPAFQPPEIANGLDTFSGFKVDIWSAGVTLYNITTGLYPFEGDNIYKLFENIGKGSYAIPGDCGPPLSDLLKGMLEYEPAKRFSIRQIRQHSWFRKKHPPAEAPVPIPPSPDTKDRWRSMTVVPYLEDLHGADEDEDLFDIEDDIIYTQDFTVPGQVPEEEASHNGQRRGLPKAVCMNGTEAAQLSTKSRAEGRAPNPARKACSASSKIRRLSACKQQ
Conditions: dose 1000.0 nM.
Description: Inhibition of LKB1 (unknown origin) at 1000 nM by KINOMEscan assay relative to control

Series [13] in a line: Half life in Sprague-Dawley rat at 5 mg/kg, po and measured upto 24 hrs by LC-MS/MS analysis. In kind it is ADME, organism-based. As to conditions: in vivo.
For series [14], the target named is T1, Tyrosine-protein phosphatase non-receptor type 11. The series can be described thus: Inhibition of human SHP2 in human NCI-H1975/OSIR cells assessed as reduction in ERK phosphorylation by Western blot analysis. In kind it is cell-based.
Series [15] deals with Serine/threonine-protein kinase 32C (Homo sapiens) (UniProt Q86UX6). As to conditions: dose 1000.0 nM.
Description: Inhibition of YANK3 (unknown origin) at 1000 nM by KINOMEscan assay relative to control
A short description of series [16]: Cmax in Sprague-Dawley rat at 5 mg/kg, po and measured upto 24 hrs by LC-MS/MS analysis. Type of series: ADME, organism-based. On the set-up: dose 5 mg/kg, time < 24 hrs, route po. As to conditions: in vivo.
A short description of series [17]: Half life in Sprague-Dawley rat at 5 mg/kg, iv and measured upto 24 hrs by LC-MS/MS analysis. Type of series: ADME, organism-based. As to conditions: in vivo.
The nature of series [18]: Clearance in Sprague-Dawley rat at 5 mg/kg, iv and measured upto 24 hrs by LC-MS/MS analysis. Type of series: ADME, organism-based. As to conditions: in vivo.
Series [19] in a line: Tmax in Sprague-Dawley rat at 5 mg/kg, po and measured upto 24 hrs by LC-MS/MS analysis. In kind it is ADME, organism-based. Conditions: in vivo.
A short description of series [20]: AUC (0 to infinity) in Sprague-Dawley rat at 5 mg/kg, po and measured upto 24 hrs by LC-MS/MS analysis. Type of series: ADME, organism-based. On the set-up: dose 5 mg/kg, time < 24 hrs, route po. Conditions: in vivo.

Sequence of Phosphatidylinositol 4-phosphate 3-kinase C2 domain-containing subunit beta (Homo sapiens) (O00750 whole entry, the tested form may be a part): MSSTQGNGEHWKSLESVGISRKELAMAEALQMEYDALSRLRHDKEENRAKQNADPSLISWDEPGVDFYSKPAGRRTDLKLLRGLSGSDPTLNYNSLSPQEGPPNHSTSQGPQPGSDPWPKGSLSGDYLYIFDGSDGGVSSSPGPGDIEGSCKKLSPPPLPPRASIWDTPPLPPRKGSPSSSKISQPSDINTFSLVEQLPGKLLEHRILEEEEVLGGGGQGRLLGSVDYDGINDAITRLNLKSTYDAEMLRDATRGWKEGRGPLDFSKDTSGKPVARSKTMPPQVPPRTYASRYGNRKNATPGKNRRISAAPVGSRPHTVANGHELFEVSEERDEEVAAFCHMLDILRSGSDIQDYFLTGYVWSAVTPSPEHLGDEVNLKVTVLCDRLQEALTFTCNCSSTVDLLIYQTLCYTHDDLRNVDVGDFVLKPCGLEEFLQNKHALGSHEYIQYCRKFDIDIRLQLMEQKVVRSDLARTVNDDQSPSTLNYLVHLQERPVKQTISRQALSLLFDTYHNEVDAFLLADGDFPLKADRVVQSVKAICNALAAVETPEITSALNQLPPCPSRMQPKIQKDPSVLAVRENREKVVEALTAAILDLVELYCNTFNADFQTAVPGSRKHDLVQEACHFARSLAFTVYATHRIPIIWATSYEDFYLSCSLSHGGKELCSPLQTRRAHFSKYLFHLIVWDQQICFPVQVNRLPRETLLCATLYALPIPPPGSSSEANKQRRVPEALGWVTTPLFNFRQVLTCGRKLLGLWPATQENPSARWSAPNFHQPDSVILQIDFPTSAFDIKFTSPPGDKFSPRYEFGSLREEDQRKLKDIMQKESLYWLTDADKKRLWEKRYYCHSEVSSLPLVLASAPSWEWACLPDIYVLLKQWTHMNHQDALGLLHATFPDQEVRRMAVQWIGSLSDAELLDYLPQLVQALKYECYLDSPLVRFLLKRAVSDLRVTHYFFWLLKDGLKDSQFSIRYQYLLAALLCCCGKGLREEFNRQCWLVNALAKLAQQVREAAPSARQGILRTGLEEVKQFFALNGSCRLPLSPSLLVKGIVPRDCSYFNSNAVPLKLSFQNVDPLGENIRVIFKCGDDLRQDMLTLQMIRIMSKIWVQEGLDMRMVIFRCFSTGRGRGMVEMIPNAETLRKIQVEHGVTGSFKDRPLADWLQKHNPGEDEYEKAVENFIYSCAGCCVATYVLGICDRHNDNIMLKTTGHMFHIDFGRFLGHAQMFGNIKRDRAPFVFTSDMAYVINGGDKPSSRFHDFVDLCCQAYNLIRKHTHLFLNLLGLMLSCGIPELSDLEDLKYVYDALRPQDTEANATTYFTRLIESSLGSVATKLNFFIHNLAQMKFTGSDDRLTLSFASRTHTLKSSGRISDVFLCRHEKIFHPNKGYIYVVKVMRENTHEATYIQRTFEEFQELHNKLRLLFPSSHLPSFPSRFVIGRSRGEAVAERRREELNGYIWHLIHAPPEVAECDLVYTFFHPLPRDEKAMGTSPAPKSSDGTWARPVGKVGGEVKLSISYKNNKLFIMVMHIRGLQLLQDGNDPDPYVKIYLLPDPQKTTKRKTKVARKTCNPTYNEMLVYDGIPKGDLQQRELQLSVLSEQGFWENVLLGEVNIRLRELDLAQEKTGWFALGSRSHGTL
Sequence of Insulin receptor (Homo sapiens) (P06213 28-758 limits assumed): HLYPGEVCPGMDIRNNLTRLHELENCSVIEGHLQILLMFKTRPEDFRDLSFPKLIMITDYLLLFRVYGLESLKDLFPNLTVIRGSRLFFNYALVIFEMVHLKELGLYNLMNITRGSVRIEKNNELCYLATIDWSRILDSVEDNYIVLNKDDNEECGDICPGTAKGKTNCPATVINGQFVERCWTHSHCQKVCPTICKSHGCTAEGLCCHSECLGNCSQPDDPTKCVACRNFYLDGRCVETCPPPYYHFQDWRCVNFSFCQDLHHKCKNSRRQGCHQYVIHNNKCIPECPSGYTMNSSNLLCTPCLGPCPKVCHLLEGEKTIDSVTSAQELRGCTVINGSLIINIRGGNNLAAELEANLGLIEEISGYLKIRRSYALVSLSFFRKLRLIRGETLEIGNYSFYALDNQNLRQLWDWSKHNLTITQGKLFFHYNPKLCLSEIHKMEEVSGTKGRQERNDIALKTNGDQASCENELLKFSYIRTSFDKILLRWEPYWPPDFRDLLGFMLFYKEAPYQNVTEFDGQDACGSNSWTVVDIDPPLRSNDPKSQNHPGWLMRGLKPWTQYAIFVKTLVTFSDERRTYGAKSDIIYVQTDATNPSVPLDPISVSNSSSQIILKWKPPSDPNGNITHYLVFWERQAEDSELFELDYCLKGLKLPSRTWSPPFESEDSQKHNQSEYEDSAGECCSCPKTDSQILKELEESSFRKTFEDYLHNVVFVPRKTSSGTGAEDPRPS
Sequence of Insulin receptor (Homo sapiens) (P06213 763-1382 limits assumed): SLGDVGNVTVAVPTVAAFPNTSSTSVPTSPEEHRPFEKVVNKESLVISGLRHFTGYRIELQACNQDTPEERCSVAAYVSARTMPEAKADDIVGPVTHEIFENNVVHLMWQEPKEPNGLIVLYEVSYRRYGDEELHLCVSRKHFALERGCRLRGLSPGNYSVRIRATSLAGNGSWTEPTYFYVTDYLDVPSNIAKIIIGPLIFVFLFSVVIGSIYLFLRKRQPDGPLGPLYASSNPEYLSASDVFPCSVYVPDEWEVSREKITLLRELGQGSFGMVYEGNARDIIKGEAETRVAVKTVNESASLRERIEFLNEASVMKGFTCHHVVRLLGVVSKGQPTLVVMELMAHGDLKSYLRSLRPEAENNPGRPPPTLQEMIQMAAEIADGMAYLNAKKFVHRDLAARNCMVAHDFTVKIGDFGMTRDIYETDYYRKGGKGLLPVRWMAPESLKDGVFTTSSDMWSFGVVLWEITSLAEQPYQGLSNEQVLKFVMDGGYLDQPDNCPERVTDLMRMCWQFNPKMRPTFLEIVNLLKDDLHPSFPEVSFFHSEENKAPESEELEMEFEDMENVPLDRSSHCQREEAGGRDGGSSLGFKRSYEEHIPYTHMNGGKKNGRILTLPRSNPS
Sequence of Dual specificity tyrosine-phosphorylation-regulated kinase 1B (Homo sapiens) (Q9Y463 whole entry, looked up): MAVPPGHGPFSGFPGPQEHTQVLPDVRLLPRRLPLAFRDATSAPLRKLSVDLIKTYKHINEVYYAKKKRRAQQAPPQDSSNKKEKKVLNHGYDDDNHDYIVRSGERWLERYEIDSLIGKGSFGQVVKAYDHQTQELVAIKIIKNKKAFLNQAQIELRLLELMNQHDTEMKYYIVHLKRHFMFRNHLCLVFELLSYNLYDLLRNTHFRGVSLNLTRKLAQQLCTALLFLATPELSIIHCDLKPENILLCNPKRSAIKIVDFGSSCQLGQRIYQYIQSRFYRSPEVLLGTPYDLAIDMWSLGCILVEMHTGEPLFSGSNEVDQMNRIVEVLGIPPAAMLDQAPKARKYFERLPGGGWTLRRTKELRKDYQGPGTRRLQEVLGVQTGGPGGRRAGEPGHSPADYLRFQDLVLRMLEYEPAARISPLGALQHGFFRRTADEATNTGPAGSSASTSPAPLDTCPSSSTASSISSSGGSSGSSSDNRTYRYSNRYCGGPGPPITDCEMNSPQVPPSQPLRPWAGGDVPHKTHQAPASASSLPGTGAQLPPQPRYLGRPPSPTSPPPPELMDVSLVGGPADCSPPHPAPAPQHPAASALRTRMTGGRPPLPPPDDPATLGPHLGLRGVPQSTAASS
Sequence of Serine/threonine-protein kinase 32C (Homo sapiens) (Q86UX6 whole entry): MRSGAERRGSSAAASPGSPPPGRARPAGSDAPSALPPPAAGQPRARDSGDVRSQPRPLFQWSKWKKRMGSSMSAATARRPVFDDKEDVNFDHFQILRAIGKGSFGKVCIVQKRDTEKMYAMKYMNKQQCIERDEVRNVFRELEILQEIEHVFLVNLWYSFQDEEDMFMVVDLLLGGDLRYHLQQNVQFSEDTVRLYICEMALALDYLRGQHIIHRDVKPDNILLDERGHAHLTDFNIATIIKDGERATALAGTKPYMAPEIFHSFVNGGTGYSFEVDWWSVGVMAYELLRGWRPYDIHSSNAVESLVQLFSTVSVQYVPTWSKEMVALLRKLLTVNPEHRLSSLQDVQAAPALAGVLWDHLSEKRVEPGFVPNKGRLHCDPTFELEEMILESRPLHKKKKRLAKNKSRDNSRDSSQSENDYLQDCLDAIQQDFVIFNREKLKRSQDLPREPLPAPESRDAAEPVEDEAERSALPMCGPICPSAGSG

By IC50 is commonly meant the point on the concentration scale where inhibition reaches its midpoint. Regarding `CC1(N)CCN(c2ncc(C(=O)Nc3ccccn3)c(N)n2)CC1`, in series [1], the IC50 stood at 0.8 µM. `CC1(N)CCN(c2ncc(C(=O)Nc3cccc(-c4ccccc4)c3)c(N)n2)CC1` returned an IC50 in [1] of over 100 µM. On the same count and under the same terms, the same measure for `CCOC(=O)N1CCN(c2ncc(C(=O)Nc3ccccc3)c(N)n2)CC1`: 8.5 µM; for `Nc1nc(N2CCN(c3ccccn3)CC2)ncc1C(=O)Nc1ccccc1`: over 100 µM. In turn, `Nc1nc(N2CCCC2)ncc1C(=O)Nc1ccccc1` registered an IC50 in [1] of 50 µM. Same read-out and setting: the value for `CC1(N)CCN(c2ncc(C(=O)Nc3ccc(Cl)c(Cl)c3)c(N)n2)CC1` was 0.25 µM; that for `CCCCN(C)c1ncc(C(=O)Nc2ccccc2)c(N)n1` was 25 µM; that for `Nc1nc(N2CCOCC2)ncc1C(=O)Nc1ccccc1` was 9.5 µM.

Compound `COc1ccccc1CN1CCCC(c2[nH]ccc2C(N)=O)C1` (stereo unspecified) had an IC50 in series [1] of 19 µM. In series [1], `COc1ccc(NC(=O)c2cnc(N3CCC(C)(N)CC3)nc2N)cc1OC` yielded an IC50 of 2.3 µM.

`Nc1nc(N2CCSCC2)ncc1C(=O)Nc1ccccc1` yielded an IC50 in series [1] of 5.6 µM. In [1], `CC(=O)N1CCN(c2ncc(C(=O)Nc3ccccc3)c(N)n2)CC1` gave an IC50 of 6.7 µM. The same measure, in the same setting: the value for `Nc1nc(N2CCC3(CC2)OCCO3)ncc1C(=O)Nc1ccccc1` was 12.8 µM.

Compound `CC1(N)CCN(c2ncc(C(=O)NCc3ccccn3)c(N)n2)CC1` gave an IC50 in [1] of 8.1 µM.

The compound `COc1ccc2nc(C)cc(Nc3ccccc3OC)c2c1` gave an IC50 in series [1] of 13.5 µM. For orientation: Tmax means the time at which the peak concentration occurs. The inhibition is the drop in the measured response relative to a control, in per cent. In general, AUC(0-inf) refers to the area under the concentration-time curve extrapolated to infinity. One may read the Cmax as the highest concentration seen after dosing. As a reminder, the bioavailability is the share of a dose that reaches the circulation, judged against a reference dose that is usually intravenous. As a reminder, the half-life is how long it takes for the measured level to halve. Low values mean rapid decline, high ones slow decline. Usually clearance stands for the rate of elimination divided by the concentration. The low end stands for a low capacity for elimination, the high end for a high capacity for elimination. For the compound `CC1(N)CCN(c2ncc(C(=O)Nc3cccnc3)c(N)n2)CC1`, the Tmax in series [2] stood at 4.98 min; in series [19], 2.17 h. The figures for the IC50 in series [3], in series [1] and in series [14] were 590 nM, 0.089 µM and 630 nM, respectively. Further, the inhibition in [4] is 69%; in series [6], 50%; in [8] it was over 35%; in series [11], 64%; in [12], over 35%; in series [15], 54%. The AUC(0-inf) worked out at 1880 ng·h/mL in [5] and 1040 ng·h/mL in series [20]. Besides, in series [7], the Vd worked out at 14 L/kg. In addition, the Cmax came to 854 ng/mL in series [9] and 101 ng/mL in series [16]. Moreover, the bioavailability in [10] is 55.1%. Besides, the half-life is 286 min in series [13] and 319 min in series [17]. This compound also gave a clearance in series [18] of 44.8 mL/min/kg. `COc1ccc(N2CCN(c3ncc(C(=O)Nc4ccccc4)c(N)n3)CC2)cc1` registered an IC50 in series [1] of over 100 µM. In [1], `CC1(N)CCN(c2ncc(C(=O)Nc3ccc([N+](=O)[O-])cc3)c(N)n2)CC1` had an IC50 of 2 µM.

The compound `CC1(N)CCN(c2ncc(C(=O)Nc3ccccc3)c(N)n2)CC1` had an IC50 in series [1] of 1.4 µM. `CC(C)NC(=O)CN1CCN(c2ncc(C(=O)Nc3ccccc3)c(N)n2)CC1` showed an IC50 in series [1] of 5.6 µM.

`COc1cccc(OC)c1NC(=O)c1cnc(N2CCC(C)(N)CC2)nc1N` yielded an IC50 in series [1] of 12.5 µM. In turn, `CCOC(=O)C1CCN(c2ncc(C(=O)Nc3ccccc3)c(N)n2)CC1` displayed an IC50 in series [1] of 2.1 µM. Take `Nc1nc(N2CCN(c3ccccc3)CC2)ncc1C(=O)Nc1ccccc1`: the IC50 in [1] is over 100 µM. In the case of `COc1ccc(NC(=O)c2cnc(N3CCC(C)(N)CC3)nc2N)cc1`, the IC50 in [1] stood at 1.9 µM. On the same count and under the same terms, the value for `CCCN1CCN(c2ncc(C(=O)Nc3ccccc3)c(N)n2)CC1` was 11.5 µM; that for `CC(C)(C)OC(=O)N1CCN(c2ncc(C(=O)Nc3ccccc3)c(N)n2)CC1` was 35 µM; that for `Nc1nc(N2CCN(C(=O)c3ccco3)CC2)ncc1C(=O)Nc1ccccc1` was 100 µM. In turn, `Nc1nc(N2CCN(C3CCCCC3)CC2)ncc1C(=O)Nc1ccccc1` returned an IC50 in [1] of 100 µM. In series [1], `CN(Cc1ccccc1)c1ncc(C(=O)Nc2ccccc2)c(N)n1` registered an IC50 of over 100 µM.

`CC1(N)CCN(c2ncc(C(=O)Nc3ccc(F)cc3)c(N)n2)CC1` gave an IC50 in [1] of 0.62 µM. The compound `CC1(N)CCN(c2ncc(C(=O)Nc3cccc4ccccc34)c(N)n2)CC1` registered an IC50 in [1] of 100 µM. In series [1], `CC1(N)CCN(c2ncc(C(=O)Nc3ccc4ccccc4c3)c(N)n2)CC1` showed an IC50 of 8 µM.

`CC1(N)CCN(c2ncc(C(=O)Nc3cc(Cl)cc(Cl)c3)c(N)n2)CC1`: in series [1], the midpoint of inhibition, the IC50, lay at 3.4 µM. `CC1(N)CCN(c2ncc(C(=O)Nc3ccc4c(c3)Cc3ccccc3-4)c(N)n2)CC1` registered an IC50 in [1] of 100 µM. The same measure, in the same setting: the value for `CCN1CCN(c2ncc(C(=O)Nc3ccccc3)c(N)n2)CC1` was 10.2 µM; that for `Nc1nc(N2CCc3ccccc3C2)ncc1C(=O)Nc1ccccc1` was 100 µM. In series [1], `CC(C)N1CCN(c2ncc(C(=O)Nc3ccccc3)c(N)n2)CC1` displayed a 50% inhibitory concentration (IC50) of 9.3 µM.
